In paper PMC4257840 (Journal of Medicinal Chemistry, 2014):

Legend:
[1] = molecular target: human recombinant procathepsin K (activated) (Homo sapiens, UniProt P43235); assay: Protease counter-screening: Cathepsin K; format: biochemical
Method: (§1) Appendix 7. Protease Counter -Screening
(§2) Protease counter-screeni ng was performed using the methods described below. Initial screening was conducted in duplicate using a single test substance concentration of 10 µ M .
(§3) Additional assays were conducted in replicate for selected pairin gs of test s ubstance and enz yme in order to enable the determination of IC50 values using conventional procedures.
(§4) Determination of K i was made using the Batch K i program (Biokin Ltd, Pullman, WA) to derive values from the Morrison equation: […]
Where [E ] is the active enz yme concentration, Kiapp is the apparent inhibition const ant, v 0 is the control velocit y in the absence of inhibitors, vb is the background velocity, v is the initial reaction velocit y in the presence of inhibitor, and I is the inhibitor concentration.Thence:
Where [S ] is the substrate concentration and KM is the Michealis constant.
Caspase 1: Activity against human recombinant caspase 1 expressed in E. coli was tested using Ac-YVAD- AMC as the substrate. […]
The amount of MCA-P LG formed was measured spectrofluorimetricall y at 340 nm/400 nm. […]
AMC formation was read at 360 nm/465 nm.
Cathepsin L2: Human recombinant cathepsin L2 expressed in NS0 cells was used as the enzyme source. […] Form ation of AMC was measured at 360 […]
The amount of AMC formed was read spectrofluorimetricall y at 360 nm/465 nm. […]

[2] = molecular target: T1, Human recombinant MMP-9 (Homo sapiens, UniProt P14780); assay: Protease counter-screening: MMP-9; format: biochemical
T1 construct: host or cells: mammalian cells
T1 sequence (P14780 107-707 limits assumed): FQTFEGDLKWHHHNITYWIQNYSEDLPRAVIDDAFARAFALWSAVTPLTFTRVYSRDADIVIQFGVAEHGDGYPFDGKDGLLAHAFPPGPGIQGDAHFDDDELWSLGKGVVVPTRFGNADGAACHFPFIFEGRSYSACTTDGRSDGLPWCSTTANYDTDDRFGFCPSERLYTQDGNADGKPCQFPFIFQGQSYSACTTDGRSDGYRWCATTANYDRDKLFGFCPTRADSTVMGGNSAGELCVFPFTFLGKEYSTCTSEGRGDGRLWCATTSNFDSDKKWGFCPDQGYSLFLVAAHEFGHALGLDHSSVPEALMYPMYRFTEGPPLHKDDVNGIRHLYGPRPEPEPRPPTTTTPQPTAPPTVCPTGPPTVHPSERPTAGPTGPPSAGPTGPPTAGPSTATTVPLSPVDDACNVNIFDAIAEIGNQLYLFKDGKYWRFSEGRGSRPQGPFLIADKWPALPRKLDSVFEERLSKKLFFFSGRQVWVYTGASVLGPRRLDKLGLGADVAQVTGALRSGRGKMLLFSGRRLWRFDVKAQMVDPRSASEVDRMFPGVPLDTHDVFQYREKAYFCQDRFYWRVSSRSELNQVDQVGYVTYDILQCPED
Method: as §1, §2, §3, §4
MMP-9: Human recombinant MMP-9 proenz yme ex pressed in mammalian cells was activated with APMA for 60 min at 37 °C. […] The amount of MCA-P LG formed was read spectrofluorimetricall y at 340 nm/400 nm.
ADAM-17/TACE: Human recombinant ADAM-17 expressed in Sf21 insect cells was used as enz yme sour ce. […] T he amount of MCA-P LAQA formed w as read spectro fluorimetricall y at 340 nm/400 nm.
Angiotensin converting enzyme: Test compound or vehicle was pre- incubated in modified HEPES buffer pH 7.5 for 15 min at 25 °C with 31 mU/mL angiotensin converting enz yme from rabbit lung. […] The amount of substrate remaining was read spectrophotometricall y at 340 nm and used to deri ve the extent of reaction and its inhibition. […]

human recombinant procathepsin K (activated), sequence (P43235 115-329): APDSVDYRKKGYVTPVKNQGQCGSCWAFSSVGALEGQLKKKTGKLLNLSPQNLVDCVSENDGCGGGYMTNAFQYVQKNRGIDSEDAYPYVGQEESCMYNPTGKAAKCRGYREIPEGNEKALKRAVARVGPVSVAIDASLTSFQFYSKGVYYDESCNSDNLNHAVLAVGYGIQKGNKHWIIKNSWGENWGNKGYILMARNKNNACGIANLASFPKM

Molecule `CC(C)[C@H](NC(=O)[C@H](C)NC(=O)[C@@H](NC(=O)c1ccccc1)C(C)(C)C)C(=O)C(=O)NCc1ccccc1` [Compound 38, N-{(S)-1-[(S)-1-((S)-1-Benzylaminooxalyl-2-methyl-propylcarbamoyl)-ethylcarbamoyl]-2,2-dimethyl-propyl}-benzamide] has an IC50 [1] of 2920 nM and an inhibition at 10 µM [2] of 5%.
